Converted amounts (≈) assume the structure as drawn.
Tests used:
[1] = Cmax in Sprague-Dawley rat at 20 mg/kg, IG measured upto 24 hrs by LC-MS analysis; assay type: ADME, organism-based; parameters: dose 20 mg/kg, time < 24 hrs, route ig; conditions: in vivo, po
[2] = Half life in Sprague-Dawley rat at 5 mg/kg, iv measured upto 24 hrs by LC-MS analysis; assay type: ADME, organism-based; conditions: in vivo
[3] = Half life in Sprague-Dawley rat at 20 mg/kg, IG measured upto 24 hrs by LC-MS analysis; assay type: ADME, organism-based; conditions: in vivo, po
Keap1/Nrf2 = Keap1/Nrf2 (Homo sapiens, UniProt Q14145); assay: Inhibition of recombinant N-terminal His6-tagged human Keap1-Nrf2 (322 to 609 residues) (unknown origin) protein-protein interaction expressed in Escherichia coli (DE3) incubated for 60 mins by fluorescence anisotropy assay
Keap1/Nrf2, sequence (Q16236 whole entry, the tested form may be a part): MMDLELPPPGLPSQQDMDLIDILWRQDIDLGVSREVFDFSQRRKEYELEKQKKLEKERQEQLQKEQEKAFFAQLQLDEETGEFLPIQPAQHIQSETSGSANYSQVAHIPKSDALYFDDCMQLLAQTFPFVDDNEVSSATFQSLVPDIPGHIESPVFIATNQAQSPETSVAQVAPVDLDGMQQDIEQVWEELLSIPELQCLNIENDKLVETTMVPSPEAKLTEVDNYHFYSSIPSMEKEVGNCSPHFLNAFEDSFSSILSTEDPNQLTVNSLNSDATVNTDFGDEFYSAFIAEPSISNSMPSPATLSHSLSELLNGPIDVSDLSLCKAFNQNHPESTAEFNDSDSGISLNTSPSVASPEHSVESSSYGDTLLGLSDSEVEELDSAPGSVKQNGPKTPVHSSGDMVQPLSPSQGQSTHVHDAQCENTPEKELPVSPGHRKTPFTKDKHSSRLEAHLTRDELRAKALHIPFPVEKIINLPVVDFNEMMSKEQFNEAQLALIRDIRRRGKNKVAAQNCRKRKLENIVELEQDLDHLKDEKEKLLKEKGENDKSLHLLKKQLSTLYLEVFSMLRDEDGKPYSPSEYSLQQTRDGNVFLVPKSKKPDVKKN
Keap1/Nrf2, sequence (Q14145 whole entry, the tested form may be a part): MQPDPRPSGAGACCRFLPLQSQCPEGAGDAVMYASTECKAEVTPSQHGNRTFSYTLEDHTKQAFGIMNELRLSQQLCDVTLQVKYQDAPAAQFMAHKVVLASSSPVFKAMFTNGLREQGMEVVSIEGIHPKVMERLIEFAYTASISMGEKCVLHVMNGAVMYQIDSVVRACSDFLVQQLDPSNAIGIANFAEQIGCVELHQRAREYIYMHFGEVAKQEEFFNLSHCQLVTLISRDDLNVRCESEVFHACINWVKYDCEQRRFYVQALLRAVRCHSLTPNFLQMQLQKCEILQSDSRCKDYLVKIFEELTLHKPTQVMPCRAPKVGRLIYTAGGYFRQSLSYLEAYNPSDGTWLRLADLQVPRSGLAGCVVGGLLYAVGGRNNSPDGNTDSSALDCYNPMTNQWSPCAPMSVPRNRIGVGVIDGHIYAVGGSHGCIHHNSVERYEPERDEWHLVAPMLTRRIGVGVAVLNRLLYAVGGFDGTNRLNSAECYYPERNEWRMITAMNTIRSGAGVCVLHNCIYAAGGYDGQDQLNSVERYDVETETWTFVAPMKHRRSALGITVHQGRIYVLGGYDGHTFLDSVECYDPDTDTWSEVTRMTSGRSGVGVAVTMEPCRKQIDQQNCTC

Peritoneal macrophage = assay: Cytotoxicity against mouse peritoneal macrophages assessed as reduction in cell viability measured after 24 hrs by Cell Titer-Blue assay; assay type: functional
[4] = Antiinflammatory activity against LPS-induced mouse peritoneal macrophage assessed as suppression of NO level pretreated with LPS followed by compound addition and measured after 24 hrs by Griess reagent based assay; assay type: functional, cell-based
[5] = Antiinflammatory activity against LPS-induced mouse peritoneal macrophage assessed as inhibition of TNF alpha level after 4 hrs by ELISA method; assay type: functional, cell-based
[6] = Aqueous solubility of the compound in PBS at pH 2 after 24 hrs by HPLC-UV analysis; assay type: physicochemical
[7] = Aqueous solubility of the compound in PBS at pH 7 after 24 hrs by HPLC-UV analysis; assay type: physicochemical
[8] = Aqueous solubility of the compound in PBS at pH 7.4 after 24 hrs by HPLC-UV analysis; assay type: physicochemical
[9] = Tmax in Sprague-Dawley rat at 20 mg/kg, IG measured for 24 hrs by LC-MS analysis; assay type: ADME, organism-based; conditions: in vivo, po
[10] = Tmax in Sprague-Dawley rat at 5 mg/kg, iv measured upto 24 hrs by LC-MS analysis; assay type: ADME, organism-based; conditions: in vivo
[11] = Cmax in Sprague-Dawley rat at 5 mg/kg, iv measured upto 24 hrs by LC-MS analysis; assay type: ADME, organism-based; parameters: dose 5 mg/kg, time < 24 hrs, route iv; conditions: in vivo
[12] = AUC (0 to 24 hrs) in Sprague-Dawley rat at 20 mg/kg, IG measured upto 24 hrs by LC-MS analysis; assay type: ADME, organism-based; parameters: time < 24 hrs, dose 20 mg/kg, route ig; conditions: in vivo, po
[13] = AUC (0 to 24 hrs) in Sprague-Dawley rat at 5 mg/kg, iv measured upto 24 hrs by LC-MS analysis; assay type: ADME, organism-based; parameters: time < 24 hrs, dose 5 mg/kg, route iv; conditions: in vivo
[14] = AUC(0 to infinity) in Sprague-Dawley rat at 20 mg/kg, IG measured upto 24 hrs by LC-MS analysis; assay type: ADME, organism-based; parameters: dose 20 mg/kg, time < 24 hrs, route ig; conditions: in vivo, po
[15] = AUC(0 to infinity) in Sprague-Dawley rat at 5 mg/kg, iv measured upto 24 hrs by LC-MS analysis; assay type: ADME, organism-based; parameters: dose 5 mg/kg, time < 24 hrs, route iv; conditions: in vivo
[16] = MRT(0 to 24 hrs) in Sprague-Dawley rat at 20 mg/kg, IG measured upto 24 hrs by LC-MS analysis; assay type: ADME, organism-based; conditions: in vivo, po
[17] = MRT(0 to 24 hrs) in Sprague-Dawley rat at 5 mg/kg, iv measured upto 24 hrs by LC-MS analysis; assay type: ADME, organism-based; conditions: in vivo
[18] = MRT (0 to infinity) in Sprague-Dawley rat at 20 mg/kg, IG measured upto 24 hrs by LC-MS analysis; assay type: ADME, organism-based; conditions: in vivo, po
[19] = MRT(0 to infinity) in Sprague-Dawley rat at 5 mg/kg, iv measured upto 24 hrs by LC-MS analysis; assay type: ADME, organism-based; conditions: in vivo
[20] = Oral bioavailability in Sprague-Dawley rat at 20 mg/kg measured upto 24 hrs by LC-MS analysis; assay type: ADME, organism-based; conditions: in vivo

Cmax [1]: 708 ng/mL | t1/2 [2]: 4.31 h | half-life [3]: 10.9 h | Kd (Keap1/Nrf2): 210 nM | EC50 [4]: 970 nM | EC50 [5]: 1140 nM | solubility at 24 h [6]: 902 µg/mL (≈ 1180 µM) | solubility at 24 h [7]: 91.1 µg/mL (≈ 119 µM) | solubility at 24 h [8]: 49.3 µg/mL (≈ 64.4 µM) | Tmax [9]: 1.38 h | Tmax [10]: 0.72 h | Cmax [11]: 2630 ng/mL | AUC(0-t) at 24 h [12]: 3060 ng·h/mL | AUC(0-t) at 24 h [13]: 4560 ng·h/mL | AUC(0-inf) [14]: 3700 ng·h/mL | AUC [15]: 4779.24 ng·h/mL | MRT last at 24 h [16]: 6.71 h | MRT last at 24 h [17]: 4.64 h | MRT inf [18]: 14 h | MRT inf [19]: 5.94 h | bioavailability [20]: 19.9%
SMILES: CCN1CCN(CCC(=O)Nc2ccc(S(=O)(=O)N(CC(N)=O)c3ccc(N(CC(N)=O)S(=O)(=O)c4ccc(OC)cc4)c4ccccc34)cc2)CC1
CC50 (Peritoneal macrophage): > 100000 nM

Reference: ChEMBL document CHEMBL5154943, “Crystallography-Guided Optimizations of the Keap1-Nrf2 Inhibitors on the Solvent Exposed Region: From Symmetric to Asymmetric Naphthalenesulfonamides” (J Med Chem, 2022)
